Like-named read-outs stand apart in the source and are kept apart here. Starred links: 1 amine or outer side, 2 acyl side, 3 side chain; linkers in the order of their positions; H or OH if unused. Positions of bridges follow the written chain, without caps; N, C: chain ends. Non-standard residues stand in square brackets, D forms with d. Residues, ends and D or L forms follow the SMILES beside them. *: point of attachment. X6 = CS(=O)(=O)c1ccc(-c2ccc(C[C@H](N[*:1])C(=O)[*:2])cc2)cc1; Phe(3-OCH2COOH) = N[C@@H](Cc1cccc(OCC(=O)O)c1)C(=O)O; Piperidine(4-CH2CH2CONH2) = NC(=O)CCC1CCN(*)CC1; Phe(4-COOH) = N[C@@H](Cc1ccc(C(=O)O)cc1)C(=O)O; X14 = CCc1cccc(C[C@@H](C(=O)[*:2])N(C)[*:1])c1; Trp(7-aza) = N[C@@H](Cc1c[nH]c2ncccc12)C(=O)O; Piperazinyl(4-CH2COOH) = O=C(O)CN1CCN(*)CC1; Bip = N[C@@H](Cc1ccc(-c2ccccc2)cc1)C(=O)O; Gly(decyl) = CCCCCCCCCC[C@H](N)C(=O)O; Gly(N(CH2)3COOH) = O=C(O)CCCNCC(=O)O; AEF = NCCOc1ccc(C[C@H](N)C(=O)O)cc1; NMeY = CN[C@@H](Cc1ccc(O)cc1)C(=O)O; X1 = CCCCCCC[C@H](N[*:1])C(=O)[*:2]; X7 = COCCCCC[C@H](N[*:1])C(=O)[*:2]; NMeF = CN[C@@H](Cc1ccccc1)C(=O)O; 3Pal = N[C@@H](Cc1cccnc1)C(=O)O; 4Pal = N[C@@H](Cc1ccncc1)C(=O)O; NMeE = CN[C@@H](CCC(=O)O)C(=O)O; NMeA = CN[C@@H](C)C(=O)O; Dap = NC[C@H](N)C(=O)O; Sar = CNCC(=O)O
Key:
Myostatin = target: T1, Myostatin (Homo sapiens, UniProt O14793); test: HepG2 reporter gene assay, Evaluation Procedure (2): 2-concentrations assay, myostatin inhibition; assay type: cell-based
T1 construct: active myostatin (also called mature myostatin) is a homodimer consisting of two C-terminal growth factor domains; purchased R&D systems 788-G8/CF
T1 sequence (O14793 267-375): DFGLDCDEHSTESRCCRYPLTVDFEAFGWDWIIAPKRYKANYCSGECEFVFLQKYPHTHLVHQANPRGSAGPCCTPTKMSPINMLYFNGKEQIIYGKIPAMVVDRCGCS
In short: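 HepG2 cells (HB-8065, ATCC) carrying the transfected pGL3(CAGA)12-luc reporter plasmid were treated with myostatin (788-G8/CF, R&D systems) at a final concentration of 10 ng/mL plus peptide and incubated at 37°C, 5% CO2 for 20 to 24 hours. Luminescence was read after adding PBS mixed 1:1 with One-Glo substrate, and inhibition rate was calculated.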

GDF-11 = target: T2, GDF-11 (Homo sapiens, UniProt O95390); test: HepG2 reporter gene assay, Evaluation Procedure (2): 2-concentrations assay, GDF-11 inhibition; assay type: cell-based; conditions: for inhibition at 0.03 µM: HepG2, peptide 30nM, read-out: GDF11 Inhibition 30nM; for inhibition at 0.03 µM / inhibition at 0.1 µM: GDF-11 10 ng/mL; for inhibition at 0.1 µM: HepG2, peptide 100nM, read-out: GDF11 Inhibition 100nM
T2 construct: purchased R&D systems 1958-GD-G8/CF
T2 sequence (O95390 299-407): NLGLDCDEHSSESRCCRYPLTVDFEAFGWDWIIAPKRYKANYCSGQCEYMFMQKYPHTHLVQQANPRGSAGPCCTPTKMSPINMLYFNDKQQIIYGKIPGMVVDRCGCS
In short: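 HepG2 cells carrying the transfected pGL3(CAGA)12-luc reporter, a pGL3 vector with luciferase placed downstream of 12 CAGA repeats, were stimulated with GDF-11 at a final 10 ng/mL together with test peptide. Blank wells received no GDF-11 and no peptide. Plates were incubated 20 to 24 hours at 37°C with 5% CO2. Luminescence from One-Glo substrate was read to calculate percent inhibition.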

[1] = peptide 30nM, Myostatin 10 ng/mL, HepG2, read-out: Myostatin Inhibition 30nM
[2] = peptide 100nM, Myostatin 10 ng/mL, HepG2, read-out: Myostatin Inhibition 100nM
[3] = HepG2, read-out: inhibition rate (myostatin inhibition assay)

| Structure (SMILES) | inhibition at 0.03 µM (Myostatin; [1]) [%] | inhibition at 0.1 µM (Myostatin; [2]) [%] | inhibition at 0.03 µM (GDF-11) [%] | inhibition at 0.1 µM (GDF-11) [%] | inhibition at 0.03 µM (Myostatin; [3]) [%] | inhibition at 0.1 µM (Myostatin; [3]) [%] | inhibition (GDF-11; HepG2, read-out: inhibition rate (GDF-11 inhibition assay), Table 7-3/7-4, GDF-11 10 ng/mL, peptide at the higher of the 2 concentrations) [%] | inhibition (GDF-11; HepG2, read-out: inhibition rate (GDF-11 inhibition assay), Table 7-3/7-4, GDF-11 10 ng/mL, peptide at the lower of the 2 concentrations) [%] |
| --- | --- | --- | --- | --- | --- | --- | --- | --- |
| CCc1cccc(C[C@H]2C(=O)N[C@@H](C(=O)O)CSCC(=O)N(CCCC(=O)O)CC(=O)N[C@@H](C)C(=O)N[C@@H](Cc3ccc(-c4ccccc4)cc3)C(=O)N[C@@H](Cc3ccc(O)cc3)C(=O)N(C)[C@@H](Cc3ccc(O)cc3)C(=O)N[C@@H]([C@@H](C)CC)C(=O)N(C)CC(=O)N[C@@H](Cc3cccc(OCC(=O)O)c3)C(=O)N[C@@H](Cc3ccc(C(=O)O)cc3)C(=O)N[C@@H](CCCNC(=N)N)C(=O)N(C)[C@@H](Cc3ccccc3)C(=O)N[C@@H](CC(C)C)C(=O)N(C)[C@@H](C)C(=O)N2C)c1 [Myostatin_99_v113] ({CH2CO}-[Gly(N(CH2)3COOH)]A[Bip]Y[NMeY]I[Sar][Phe(3-OCH2COOH)][Phe(4-COOH)]R[NMeF]L[NMeA][X14][dC]-OH; thioether N-15) | 35 | 70 | 0 | 0 |  |  |  |  |
| CC[C@H](C)[C@@H]1NC(=O)[C@H](Cc2ccccc2)N(C)C(=O)[C@H](Cc2ccc(O)cc2)NC(=O)[C@H](Cc2c[nH]c3ccccc23)NC(=O)[C@H](C)NC(=O)[C@H](C)NC(=O)CSC[C@H](C(=O)N[C@@H](CN)C(N)=O)NC(=O)[C@H](Cc2ccccc2)N(C)C(=O)[C@H](C)N(C)C(=O)[C@H](CC(C)C)NC(=O)[C@H](Cc2ccccc2)N(C)C(=O)[C@H](CCCNC(=N)N)NC(=O)[C@H](Cc2ccc(O)cc2)NC(=O)[C@H](CCCCN)NC(=O)CN(C)C1=O [Myostatin_99_Variant_11] ({CH2CO}-AAWY[NMeF]I[Sar]KYR[NMeF]L[NMeA][NMeF][dC][Dap]-NH2; thioether N-15) | 75 | 94 | 22 | 26 |  |  |  |  |
| CCCCCCC[C@@H]1NC(=O)[C@H](Cc2ccccc2)N(C)C(=O)[C@H](CCCNC(=N)N)NC(=O)[C@H](Cc2ccc(C(=O)O)cc2)NC(=O)[C@H](Cc2cccc(OCC(=O)O)c2)NC(=O)CN(C)C(=O)[C@H]([C@@H](C)CC)NC(=O)[C@H](Cc2ccccc2)N(C)C(=O)[C@H](Cc2ccc(OCCN)cc2)NC(=O)[C@H](Cc2c[nH]c3ccccc23)NC(=O)[C@H](C)NC(=O)[C@H](C)NC(=O)CSC[C@H](C(=O)N2CCN(CC(=O)O)CC2)NC(=O)[C@H](Cc2ccccc2)N(C)C(=O)[C@H](C)N(C)C1=O [Myostatin_99_v299] ({CH2CO}-AAW[AEF][NMeF]I[Sar][Phe(3-OCH2COOH)][Phe(4-COOH)]R[NMeF][X1][NMeA][NMeF][dC]-{Piperazinyl(4-CH2COOH)}; thioether N-15) | 93 | 99 | 0 | 0 |  |  |  |  |
| CC[C@H](C)[C@@H]1NC(=O)[C@H](Cc2ccccc2)N(C)C(=O)[C@H](Cc2ccc(O)cc2)NC(=O)[C@H](Cc2c[nH]c3ccccc23)NC(=O)[C@H](C)NC(=O)CN(CCCC(=O)O)C(=O)CSC[C@H](C(N)=O)NC(=O)[C@H](Cc2ccccc2)N(C)C(=O)[C@H](C)N(C)C(=O)[C@H](CC(C)C)NC(=O)[C@H](Cc2ccccc2)N(C)C(=O)[C@H](CCCNC(=N)N)NC(=O)[C@H](Cc2ccc(C(=O)O)cc2)NC(=O)[C@H](Cc2ccc(O)cc2)NC(=O)[C@H](C)N(C)C1=O [Myostatin_99_Variant_15] ({CH2CO}-[Gly(N(CH2)3COOH)]AWY[NMeF]I[NMeA]Y[Phe(4-COOH)]R[NMeF]L[NMeA][NMeF][dC]-NH2; thioether N-15) | 54 | 84 | 0 | 0 |  |  |  |  |
| CCCCCCC[C@@H]1NC(=O)[C@H](Cc2ccccc2)N(C)C(=O)[C@H](CCCNC(=N)N)NC(=O)[C@H](Cc2ccncc2)NC(=O)[C@H](Cc2cccc(OCC(=O)O)c2)NC(=O)CN(C)C(=O)[C@H]([C@@H](C)CC)NC(=O)[C@H](Cc2ccccc2)N(C)C(=O)[C@H](Cc2ccc(O)cc2)NC(=O)[C@H](Cc2c[nH]c3ccccc23)NC(=O)[C@@H](CCC(=O)O)NC(=O)[C@H](C)NC(=O)CSC[C@H](C(=O)O)NC(=O)[C@H](Cc2ccccc2)N(C)C(=O)[C@H](C)N(C)C1=O [Myostatin_99_v218] ({CH2CO}-A[dE]WY[NMeF]I[Sar][Phe(3-OCH2COOH)][4Pal]R[NMeF][X1][NMeA][NMeF][dC]-OH; thioether N-15) | 44 | 74 | 0 | 0 |  |  |  |  |
| CCCCCCCCCC[C@@H]1NC(=O)[C@H](Cc2ccccc2)N(C)C(=O)[C@H](CCCNC(=N)N)NC(=O)[C@H](Cc2ccc(C(=O)O)cc2)NC(=O)[C@H](Cc2cccc(OCC(=O)O)c2)NC(=O)[C@H]2CCCN2C(=O)[C@H]([C@@H](C)CC)NC(=O)[C@H](Cc2ccccc2)N(C)C(=O)[C@H](Cc2ccc(O)cc2)NC(=O)[C@H](Cc2ccc(-c3ccc(S(C)(=O)=O)cc3)cc2)NC(=O)[C@H](C)NC(=O)[C@H](C)NC(=O)CSC[C@H](C(=O)N2CCC(CCC(N)=O)CC2)NC(=O)[C@H](Cc2ccccc2)N(C)C(=O)[C@H](CCC(=O)O)N(C)C1=O [Myostatin_99_v345] ({CH2CO}-AA[X6]Y[NMeF]I[dP][Phe(3-OCH2COOH)][Phe(4-COOH)]R[NMeF][Gly(decyl)][NMeE][NMeF][dC]-{Piperidine(4-CH2CH2CONH2)}; thioether N-15) |  |  |  |  | 100 | 100 | 70 | 7 |
| CC[C@H](C)[C@@H]1NC(=O)[C@H](Cc2ccccc2)N(C)C(=O)[C@H](Cc2ccc(O)cc2)NC(=O)[C@H](Cc2c[nH]c3ccccc23)NC(=O)[C@H](C)NC(=O)CN(CCCC(=O)O)C(=O)CSC[C@H](C(N)=O)NC(=O)[C@H](Cc2ccccc2)N(C)C(=O)[C@H](C)N(C)C(=O)[C@H](CC(C)C)NC(=O)[C@H](Cc2ccccc2)N(C)C(=O)[C@H](CCCNC(=N)N)NC(=O)[C@H](Cc2cccnc2)NC(=O)[C@H](Cc2ccc(O)cc2)NC(=O)CN(C)C1=O [Myostatin_99_Variant_16] ({CH2CO}-[Gly(N(CH2)3COOH)]AWY[NMeF]I[Sar]Y[3Pal]R[NMeF]L[NMeA][NMeF][dC]-NH2; thioether N-15) | 34 | 75 | 0 | 4 |  |  |  |  |
| CC[C@H](C)[C@@H]1NC(=O)[C@H](Cc2ccccc2)N(C)C(=O)[C@H](Cc2ccc(O)cc2)NC(=O)[C@H](Cc2c[nH]c3ncccc23)NC(=O)[C@H](C)NC(=O)CN(CCCC(=O)O)C(=O)CSC[C@H](C(N)=O)NC(=O)[C@H](Cc2ccccc2)N(C)C(=O)[C@H](C)N(C)C(=O)[C@H](CC(C)C)NC(=O)[C@H](Cc2ccccc2)N(C)C(=O)[C@H](CCCNC(=N)N)NC(=O)[C@H](Cc2ccc(C(=O)O)cc2)NC(=O)[C@H](Cc2ccncc2)NC(=O)CN(C)C1=O [Myostatin_99_Variant_21] ({CH2CO}-[Gly(N(CH2)3COOH)]A[Trp(7-aza)]Y[NMeF]I[Sar][4Pal][Phe(4-COOH)]R[NMeF]L[NMeA][NMeF][dC]-NH2; thioether N-15) | 40 | 76 | 0 | 0 |  |  |  |  |
| CC[C@H](C)[C@@H]1NC(=O)[C@H](Cc2ccccc2)N(C)C(=O)[C@H](Cc2ccc(O)cc2)NC(=O)[C@H](Cc2c[nH]c3ccccc23)NC(=O)[C@H](C)NC(=O)CN(CCCC(=O)O)C(=O)CSC[C@H](C(=O)O)NC(=O)[C@H](Cc2ccccc2)N(C)C(=O)[C@H](C)N(C)C(=O)[C@H](CCCCCOC)NC(=O)[C@H](Cc2ccccc2)N(C)C(=O)[C@H](CCCNC(=N)N)NC(=O)[C@H](Cc2ccc(C(=O)O)cc2)NC(=O)[C@H](Cc2ccncc2)NC(=O)CN(C)C1=O [Myostatin_99_v228] ({CH2CO}-[Gly(N(CH2)3COOH)]AWY[NMeF]I[Sar][4Pal][Phe(4-COOH)]R[NMeF][X7][NMeA][NMeF][dC]-OH; thioether N-15) | 19 | 60 | 4 | 0 |  |  |  |  |

Reference: patent EP4786487A1, “PEPTIDE” (Peptidream Inc, priority 2023, dated 2025)
